Reference: publication PMC2828149 (Journal of ethnopharmacology, 2009)
pIC50: −log10 of the molar value. Converted amounts (≈) assume the structure as drawn. Where two headings read alike, the source gives them in different places.

Legend:
[1] = in vitro; type: cell-based; settings: human
[2] = tested on: ROS generation in Myelomonocytic HL-60 cells; assay: cell based antioxidant assay, inhibition of PMA-induced ROS generation; settings: for Antioxidant IC50: inhibition of PMA-induced ROS generation in HL-60 cells; for IC50: Homo sapiens, HL-60, read-out: Antioxidant IC50
[3] = target: T1, recombinant human Monoamine Oxidase A (MAO-A) (Homo sapiens, UniProt P21397); assay: kynuramine deamination assay, recombinant human MAO-A; type: biochemical; settings: for MAO-A inhibitory activity in words: pure compounds; for MAO-A activity more potent than MAO-B: ratio of MAO-B to MAO-A IC50
T1 sequence (P21397 1-527): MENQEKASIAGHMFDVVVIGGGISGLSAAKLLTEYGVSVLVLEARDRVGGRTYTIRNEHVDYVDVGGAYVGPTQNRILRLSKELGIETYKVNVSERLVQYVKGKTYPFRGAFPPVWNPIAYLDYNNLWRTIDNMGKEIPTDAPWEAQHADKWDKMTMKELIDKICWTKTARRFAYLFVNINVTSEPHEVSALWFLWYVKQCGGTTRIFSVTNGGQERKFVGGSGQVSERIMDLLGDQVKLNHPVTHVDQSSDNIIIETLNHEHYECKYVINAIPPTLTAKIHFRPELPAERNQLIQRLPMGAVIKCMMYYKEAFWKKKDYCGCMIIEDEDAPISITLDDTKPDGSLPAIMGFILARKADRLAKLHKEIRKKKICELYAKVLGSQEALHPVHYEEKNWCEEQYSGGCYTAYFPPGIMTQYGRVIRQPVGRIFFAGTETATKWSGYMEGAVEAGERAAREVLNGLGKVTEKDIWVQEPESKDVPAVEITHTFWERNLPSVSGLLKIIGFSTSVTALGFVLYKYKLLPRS

[4] = target: T2, recombinant human Monoamine Oxidase B (MAO-B) (Homo sapiens, UniProt P27338); assay: biochemical; type: biochemical
T2 sequence (P27338 1-520): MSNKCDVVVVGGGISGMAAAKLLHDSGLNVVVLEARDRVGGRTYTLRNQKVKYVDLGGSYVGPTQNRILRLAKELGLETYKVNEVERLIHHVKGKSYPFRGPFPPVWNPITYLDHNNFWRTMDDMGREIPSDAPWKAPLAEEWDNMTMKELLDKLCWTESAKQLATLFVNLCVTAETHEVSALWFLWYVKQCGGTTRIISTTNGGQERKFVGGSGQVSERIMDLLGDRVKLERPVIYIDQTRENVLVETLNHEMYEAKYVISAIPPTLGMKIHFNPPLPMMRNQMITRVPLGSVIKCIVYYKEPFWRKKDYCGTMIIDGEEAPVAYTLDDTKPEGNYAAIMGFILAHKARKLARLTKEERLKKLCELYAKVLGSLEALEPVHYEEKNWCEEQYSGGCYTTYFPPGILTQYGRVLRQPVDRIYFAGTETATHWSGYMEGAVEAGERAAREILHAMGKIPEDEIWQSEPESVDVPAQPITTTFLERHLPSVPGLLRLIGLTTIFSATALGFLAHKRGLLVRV

[5] = tested on: HL-60 cells; assay: in vitro; type: cell-based; settings: HL-60 cells, 48 hours, XTT
[6] = tested on: MAO-A; settings: liver homogenate; ref Schwartz et al., 2003; cited from earlier work
[7] = tested on: rat striatal slices; settings: ref Schwartz et al., 2003; cited from earlier work
[8] = tested on: PC12 cells; settings: ref Cho et al., 2008, Heo and Lee, 2005; cited from earlier work
[9] = read-out: MAO-A IC50, pure compounds and standards
[10] = read-out: MAO-B IC50, pure compounds and standards

| Compound | IC50 at 48 h [1] [µg/mL] | Antioxidant IC50 [2] | pIC50 [3, 9] | pIC50 [4, 10] | Cytotoxicity IC50 [5] | IC50 [2] [µg/mL] | other results |
| --- | --- | --- | --- | --- | --- | --- | --- |
| COc1cccc2c1C(=O)c1c(O)c3c(c(O)c1C2=O)C[C@@](O)(C(=O)CO)C[C@@H]3O[C@H]1C[C@H](N)[C@H](O)[C@H](C)O1 [Doxorubicin, reference compound] | 0.2 to 0.35 (≈ 0.368 to 0.644 µM) |  |  |  |  |  |  |
| O=C1O[C@H]([C@@H](O)CO)C(O)=C1O [Vitamin C, reference compound] |  | 1.34 µg/mL |  |  |  |  |  |
| Cc1[nH]ccc2c1[nH]c1cc(=O)ccc12 [compound 3, harmol] |  |  |  |  |  |  | pIC50 [3]: 7.74; MAO-A inhibitory activity in words [3]: much weaker than 6 or 7 |
| COc1ccc2c3c([nH]c2c1)[C@@H](C)NCC3 [compound 5, tetrahydroharmine] |  | NA (NA = No antioxidant activity upto 31.25 µg/mL) | 7.13 | < 4.00 | NC (NC = No cytotoxicity to HL-60 cells up to 31.25 µg/mL) |  | MAO-A inhibitory activity in words [3]: much weaker than 6 or 7 |
| COc1ccc2c3c([nH]c2c1)C(C)=NCC3 [compound 6, harmaline] | 25 (≈ 117 µM) |  |  |  |  | > 31.2 | MAO-A activity more potent than MAO-B [3]: > 10,000 fold; pIC50 [4]: 4.60 |
| COc1ccc2c(c1)[nH]c1c(C)nccc12 [compound 7, harmine] | > 31.2 |  |  |  |  | > 31.2 | MAO-A activity more potent than MAO-B [3]: > 10,000 fold; pIC50 [4]: 4.70; inhibition of MAO-A in words [6]: concentration-dependent inhibition; release of dopamine in words [7]: increase |
| Oc1cc(O)c2c(c1)O[C@H](c1ccc(O)c(O)c1)[C@H](O)C2 [compound 8, (−)-2R,3R–Epicatechin] | 6.3 (≈ 21.7 µM) |  |  |  |  | < 0.13 | pIC50 [3]: 4.29; pIC50 [4]: 4.19; protection from Aβ-induced neurotoxicity in words [8]: protection |
| Oc1cc(O)c2c(c1)O[C@H](c1ccc(O)c(O)c1)[C@H](O)[C@H]2c1c(O)cc(O)c2c1O[C@H](c1ccc(O)c(O)c1)[C@H](O)C2 [compound 9, (−)-2R,3R-epicatechin-4β,8-(−)-2R,3R-epicatechin] |  | 0.57 µg/mL | 5.07 | 4.46 | NC (NC = No cytotoxicity to HL-60 cells up to 31.25 µg/mL) |  |  |
| Cc1c(C)c2c(c(C)c1O)CCC(C)(C(=O)O)O2 (stereo not drawn) [trolox, reference compound] |  |  |  |  |  | 0.14 (≈ 0.559 µM) |  |
| banistenoside A [compound 1] |  | NA (NA = No antioxidant activity upto 31.25 µg/mL) | 5.31 | < 4.00 | >12.5 µg/mL |  |  |
| banistenoside B [compound 2] |  |  | 4.67 | < 4.00 | 7.8 µg/mL |  |  |
